# What was measured:
# [1] = system: fibrocytes; experiment: Gene promoter activity assay (Secrete-Pair Dual Luminescence); format: cell-based, human; conditions: 50 μg/mL
# Method: Cell transfections, gene promoter assays and siRNA knockdown studies The nucleofection method was utilized to transfect fibrocytes with the U-023 program of the Nucleofector II instrument (Lonza, Walkersville, MD) and the Amaxa human CD34 cell nucleofection kit (cat. no. VPA-1003; Lonza). To assess human gene promoter activities, appropriate fragments described in earlier reports were selected and cloned for MHC II, CD80, CD86, and PD-L1. Confluent fibrocyte monolayers were treated with human Isotype IgG or teprotumumab (50 μg/mL) for 3 d. Cells were transfected with the following target gene promoter fragment sequences supplied by GeneCopoeia (Rockville, MD): MHC-2 (cat. #HPRM49526), −100 to +1429 nt; CD80 (cat. #HPRM45966), −300 to +1350 nt; CD86 (cat. #HPRM46979), −231 to +1272 nt; PD-L1 (cat. #HPRM40139), −237 to +1282 nt; and negative control clone PG04 (cat. #NEG-PG04). After 3-4 d, cells were incubated without or with bTSH (5 mU/mL) for 2 h. Monolayers were harvested and promoter activities measured using the Secrete-Pair Dual Luminescence Assay Kit (cat. #LF033, GeneCopoeia Rockville, MD) according to manufacturer's instructions in an FB12 tube luminometer (Zylux, Huntsville, AL). Values were normalized to internal controls and each experiment was performed at least three times. […]
# [2] = system: CD34+ fibrocytes; experiment: MHC II, CD80, CD86, PD-L1 expression in cultured fibrocytes (RT-qPCR, flow cytometry); format: cell-based, human
# Source text: Fibrocyte and T cell isolation and cultivation. Peripheral blood mononuclear cells (PBMCs) were obtained from the venous circulation of clinic patients with GD, TAO or from healthy donors after obtaining informed consent. PBMCs were also obtained from Red Cross donor plasmapheresis filters. They were isolated by Ficoll-Histopaque (Sigma-Aldrich, St. Louis, MO) density gradient centrifugation. Fibrocytes were cultivated as described (Bucala, R, et al., (1994) Mol Med 1, 71-81, incorporated herein by reference in its entirety) except that culture substrata remained uncoated with fibronectin, as previously described (Douglas, R. S., et al. (2010) The Journal of clinical endocrinology and metabolism 95, 430-438). Isolated PBMCs (1×10^6-1×107) were inoculated in six-well plates covered with DMEM containing 10% FBS and incubated in 10-14 days. Adherent monolayers (<5% of the starting population) were washed with PBS and detached using accutase (Millipore) treatment, or mechanical scraping following accutase treatment. Culture purity was routinely confirmed by FACS analysis to be >90% fibrocytes by confirming the CD31^−CD45^+CD34^+CXCR4^+Col I^+TSFR^high phenotype.
# Invariably, a small population of tightly adherent T cells were found in the fibrocyte cultures, consistent with the previous findings. Culture viability was routinely verified to be >90%. CD4^+ T cells were enriched using the CD4 isolation cocktail (Cat #0.130-096-533, Miltenyi Biotec, San Diego, CA) followed by negative selection using a magnetic column (Cat #0.130-042-401) according to manufacturer's protocol. Fibrocytes and isolated T cells were cultured and remained untreated or were incubated with human IgG isotype control (5 μg/ml) or teprotumumab (50 μg/mL) for 7 to 9 days. Single cell suspensions were stained with anti-human CD4, CD3, CD34, MHC-2, CD80, CD86, and PD-L1 (BD Biosciences) for 30 min, rinsed and fixed with CytoPerm/CytoFix (BD). They were then stained with anti-human INFγ and IL-17A for 20 min, rinsed, and subjected to the flow cytometry analysis. Gated CD34^+CXCR4^+ fibrocytes and CD4^+CD3^+ T cells were analyzed using quadrant settings based on negative isotype staining.
# In vitro studies of CD34^+ fibrocytes and T cells PBMC and GD-OF monolayers were treated in vitro with human IgG isotype control (5 μg/ml), teprotumumab (50 μg/mL), H7 (5 μg/mL), linsitinib (1 μM), bTSH (5 mIU/mL), M22 (1 μg/mL), or IGF-1 (10 nM) for the intervals indicted in the figure legends in a 37° C., 5% CO2, humidified incubator until confluent. Brefeldin A (0.66 μl/ml), (Golgi Stop™, BD Biosciences), phorbol 12-myristate 13-acetate (PMA) (50 ng/ml) and ionomycin (1 μg/mL) were added for 5 h. Cells were rinsed with flow cytometry buffer (1×PBS, 0.5% BSA, 0.1% sodium azide) and stained with the relevant monoclonal antibodies.
# Real-time PCR Confluent fibrocyte and GD-OF cultures were incubated with bTSH (5 mIU/mL), teprotumumab (50 μg/mL) or linsitinib (1 μM) for the time intervals indicated, washed with PBS and RNA was extracted with the Aurum Total RNA Mini Kit (cat. #732-6820, Bio-Rad, Hercules, CA). Cellular RNA (2 μg) was reverse transcribed using QuantiTect Reverse Transcription kit (cat. #205314, Qiagen (Germantown, MD) and real-time PCR was performed using an Applied Biosystems instrument with QuantiTect SYBR Green PCR kit (cat. no. 204143; Qiagen, Frederick, MD). Primer sequences were as follows.
# [3] = fibrocytes from GD patients (n=28), 50 μg/mL, 9 d
# [4] = teprotumumab 50 μg/mL, time-dependent over 9 d treatment
substance,measurement,setting,value
teprotumumab,"activities of MHC II, CD80, CD86, PD-L1 gene promoter fragments",[1]; 3 days,downregulated
same,bTSH induction of each gene promoter fragment,[1]; bTSH 2 h,attenuated
same,"effect on MHC II, CD80, CD86, PD-L1 expression, teprotumumab compared with TSHR inhibitor ML224","[2]; 9 d, single agents and in combination",effective
same,"surface proteins MHC II, CD80, CD86, PD-L1 at 9 days",[2]; 9 days,uniformly reduced to levels of detectability or below
same,"induction of MHC II, CD80, CD86, PD-L1 surface proteins",[2]; bTSH-treated fibrocytes,blocked
same,frequency of CD34+ fibrocytes,[2]; cultures from GD patients and healthy controls,unaffected
same,reduction in level of CD80 cell-surface protein,[2]; [3],52%
same,reduction in level of CD86 cell-surface protein,[2]; [3],49%
same,reduction in level of MHC II cell-surface protein,[2]; [3],57%
same,reduction in level of PD-L1 cell-surface protein,[2]; [3],47%
same,"induction of MHC II, CD80, CD86, PD-L1 mRNA by bTSH and M22","[2]; teprotumumab 50 μg/mL, 1H7 5 μg/mL, linsitinib 1 μM",blocked
same,"protein levels of MHC II, CD80, CD86, PD-L1",[2]; [4],substantially reduced
same,"steady-state mRNA levels of MHC II, CD80, CD86, PD-L1",[2]; [4],substantially reduced

# — patent publication US20250034264A1, “REGULATING T CELL IMMUNE RESPONSE THROUGH IGF-I RECEPTOR (IGF-1R)” (The Regents of the University of Michigan, priority 2021, published 2025)
